Results on one compound are retold here after paper PMC11175440, “Exploring hydrophilic 2,2-di(indol-3-yl)ethanamine derivatives against Leishmania infantum” (PLOS ONE, 2024).

As usually defined, the IC50 is the concentration needed to halve the response being measured. The term inhibition denotes the drop in the measured response relative to a control, in per cent. A word on the CC50: it is the concentration giving 50% cytotoxicity.

In series [1] the test system is L. infantum (MHOM/MA/67/ITMAP-263) axenic amastigotes. The series is described as follows: In vivo anti-amastigote activity in BALB/c mice infection model (limiting dilution parasite burden). To be noted: all the organs (spleen, liver, bone marrow); miltefosine 10 mg/kg/day per os, 10 days. The method, then: (§1) The compound URB1483 was selected for the in vivo evaluation on a BALB/c mice infection model. Six- to seven-week-old BALB/c mice were purchased from Charles River Laboratories (Barcelona, Spain) or the I3S (Porto, Portugal) animal facility. Luciferase-expressing L. infantum (MHOM/MA/67/ITMAP-263) axenic amastigotes were cultured in complete cell-free medium MAA/20 [20] at 37°C with 5% CO2. Five-day-old cultures of amastigotes were washed twice with PBS and resuspended at a concentration of 1×10^9 parasites/Ml. A total of 17 mice were infected with 100 μL of parasite suspension containing 1×10^8 parasites. The injection was performed intra-venously (IV) in the tails of mice, and treatments started 21 days post-infection for 10 consecutive days. Formulation studies are reported in the Supporting Information (S1 Table in S1 File). […]
(§2) Mice well-being-assessment was checked every two days, in terms of weight control and the presence of stress signs. […] Spleen and liver were weighted, and bone marrow cells were counted with automatic cell counter EVE^TM (NanoEnTek, Seul, Korea). […] For bone marrow, the number of parasites was calculated per 10^5 cells using the formula: [(geometric mean of reciprocal titer from each triplicate/number of cells) × reciprocal fraction of the cells inoculated into the first well]. […]

Series [2] deals with L. infantum intracellular amastigotes. The series is described as follows: Anti-amastigote assay on infected THP-1 cells. Type of series: cell-based. The following applies: Leishmania infantum; THP-1 cells infected 24 h, 72 h treatment, 20 to 0.31 μM; read-out: IC50 against L. infantum intracellular amastigotes. The method, then:
THP-1 cells were plated in a 96-well plate and differentiated as described above. […] Briefly, Leishmania cells were washed twice with PBS to remove any trace of serum and resuspended 1×10^7/mL PBS. […] Labeled parasites were washed three times with complete RPMI medium and used for the infection. […] To analyze the infection, cells were washed, formaldehyde/methanol fixed, stained with Hoechst dye, and observed with a fluorescence microscope. Images were acquired (at 5× magnification) at 494 nm excitation/521 nm emission (green) and 350 nm excitation/460 emission (blue) for CFSE and Hoechst staining, respectively. Automated cell counting of single-color images was performed with ImageJ software to monitor the infection: the promastigotes count on each green image was normalized with the cell count on the corresponding blue image. […] To calculate IC50, the percentage values of Leishmania cell count normalized to THP-1 cells were plotted against the log10 concentration (μM) of each compound.

The test system of series [3] is L. infantum MHOM/TN/80/IPT1 promastigotes. The series is described as follows: L. infantum promastigotes viability assay. Type of series: cell-based. The following applies: Leishmania infantum, 72 h. The method, then:
The reference strain L. infantum MHOM/TN/80/IPT1 (WHO international reference strain) was purchased from ATCC (ATCC® 50134™) and cultured in Evans’s Modified Tobie Medium (EMTM) at 26–28°C. During the treatment with bisindole derivative compounds, the parasites were maintained in RPMI-PY medium as described previously
The activity of bisindole derivatives was first evaluated on late log/stationary phase L. infantum promastigotes resuspended in 96-well plates (100 μL/well) in complete RPMI-PY medium with a density of 2.5×10^6 parasites/mL. The anti-parasitic activity was initially investigated with the single dose of 20 μM of each compound for 72 h at 26°C. […] As positive control, the anti-leishmanial drug miltefosine (Sigma-Aldrich, Milan, Italy) was included. Each condition was carried out in duplicate. The promastigotes viability was evaluated using the CellTiter 96H aqueous non-radioactive cell proliferation assay (Promega, Madison, Wisconsin, USA), as previously reported. The efficacy of selected compounds was evaluated by determining the IC50 values using the non-linear regression curves in GraphPad Prism 8.0 (GraphPad Software, Inc., San Diego, CA, USA). The equation used for data fitting was Y = 100/(1+10^((LogIC50-X)*HillSlope)) (hillslope not constrained), where X is equal to the log of concentration and Y is the normalized response.

Series [4] in a line: Well-being, body weight and organ weight of infected and treated BALB/c mice. To be noted: miltefosine 10 mg/kg/day per os. Type of series: in vivo. The method, then:
as §1, §2

Series [5] in a line: Cytotoxicity assay on PMA-differentiated THP-1 macrophage-like cells. The class given is cell-based, human. To be noted: human, PMA-differentiated THP-1 macrophage-like cells; 72 h, scalar dilutions from 100 to 3.12 μM; mean and 95% CI. The method, then:
(§3) The human monocytic cell line THP-1 (ECACC 88081201) was cultured in RPMI-1640 medium supplemented with 10% heat-inactivated fetal bovine serum (FBS), 2 mM L-glutamine, 10 g/L non-essential amino acid, 1 mM sodium pyruvate, 100 μg/mL streptomycin, […]. Cells were maintained in a humidified incubator at 37°C and 5% CO2. All cell culture reagents were purchased from Sigma-Aldrich (St. Louis, MO, USA).
(§4) The cytotoxicity of bisindole derivative compounds was evaluated on THP-1 cells. Briefly, cells were resuspended at a density of 5×10^6 cells/mL, 100 μL/well were seeded in a 96-well plate and treated for 48 h with 20 ng/mL phorbol myristic acid (PMA) to induce differentiation into macrophages-like cells. After cell adhesion, selected compounds were used at 4, 20, and 100 μM, for 72 h at 37°C. […] Compounds with cytotoxicity higher than 20 μM were further tested to determine CC50 with scalar dilutions 1:2 or 2:3 (from 100 to 3.12 μM).
(§5) The negative control (not-treated cells) and the anti-leishmanial drug miltefosine were included in each experiment. Each condition was carried out in duplicate. To evaluate the cytotoxicity of the selected compounds, the CellTiter 96H Aqueous Non-Radioactive Cell Proliferation Assay (Promega) was performed as described above. For each compound, the SI was calculated as the ratio between cytotoxicity in THP-1 and activity against L. infantum promastigotes.

The next series relates to THP-1 cells. The description is as above. To be noted: CC50 in THP-1 / IC50 against L. infantum promastigotes. The class given is cell-based, human. The method, then: as §3, §4, §5

Molecules are shown by their SMILES.

With `CCCCCCCCCCCCCCCCOP(=O)([O-])OCC[N+](C)(C)C` [miltefosine, reference compound], the “reduction of parasite burden” value in series [1] is recorded as “more than 99.9%”. The IC50 in series [2] turned out to be 1.8 µM; in series [3] (scalar dilutions from 20 to 0.31 μM, mean and 95% CI), 3.6 µM. Besides, the inhibition at 20 µM in series [3] (single dose 20 μM, 26°C) turned out to be 96.7%. Further, the spleen weight entry in series [4] (after 10 days of treatment, versus non-treated infected group) is on record as “significantly lower to the non-treated group”. In series [4] (infected BALB/c mice, from the second treatment), the weight decrease amounted to 10%. This compound also showed a CC50 at 72 h in series [5] of 36.7 µM. Moreover, the “SI (CC50/IC50)” value with THP-1 cells is recorded as 10.2.
